Reference: patent US20110166112A1, “METHOD FOR STIMULATING PLATELET PRODUCTION” (Eisai, Inc., priority 2009, published 2011)

Tested on: subjects with chronic idiopathic thrombocytopenic purpura (ITP)
Experiment: Phase 2 28-day study of E5501 tablets: safety and tolerability (TEAEs, discontinuations)
Format: in vivo, human
Conditions: for Discontinued study, primary reason Adverse Event or SAE / Discontinued study, primary reason Platelet Count Increase to ≧500 K/mm^3: randomized/safety/FAS; for Blood and lymphatic system disorders / Cardiac disorders / Eye disorders / Gastritis haemorrhagic / Gastrointestinal disorders / Infections and infestations / Myocardial infarction / Nervous system disorders / Pneumonia / Retinal artery occlusion / Thrombocytopenia / Transient ischaemic attack: serious TEAE
Experimental: This was a phase 2, multi-center, double-blind, randomized, placebo-controlled, dose-ranging, parallel group study of E5501 tablets, used in the treatment of subjects with chronic idiopathic thrombocytopenic purpura (ITP) refractory to or relapsed after at least one prior ITP therapy. Subjects who met all entry criteria were randomly assigned in a 3:3:3:3:1 ratio to one of the following five treatment groups dosed daily for 28 days: 1) E5501 2.5 mg; 2) E5501 5 mg; 3) E5501 10 mg; 4) E5501 20 mg; or 5) placebo (PBO). Each E5501 dosing group consisted of 15 subjects while the PBO group consisted of 5 subjects. All study subjects were evaluated weekly (days 7, 14, 21 and 28) for safety and efficacy while receiving study treatment, with a final assessment for safety and effectiveness performed 4 weeks after the last study dose (day 56) unless the subject entered the follow-on study. Platelet counts were also measured on day 3 and day 5.
The safety and tolerability parameters included adverse events, clinical laboratory parameters, study drug exposure, vital electrocardiograms, concomitant medications, serum pregnancy tests for women of childbearing potential and physical examinations including height, weight, general appearance and recording of vital signs.
The populations of interest were defined as follows: • The randomized population included all subjects who were randomized into the study. • The safety population included all randomized subjects who receive at least one dose of study drug and have at least one safety assessment. • The pharmacokinetic (PK) population included all subjects who provided blood sample for analysis of E5501. A subject was included in this population if the subject had at least one blood draw for PK assessment. • The full analysis set (FAS) included all subjects who provided adequate data to derive at least one efficacy assessment. […] The day 28 visit window was defined to be from day 25, to last dose day+1, inclusively; • Other major protocol violations that impacted the platelet endpoint evaluation. Results from Planned Analyses
Subject Disposition. Sixty four subjects were randomly assigned to treatment in this study. All treated subjects provided adequate efficacy data and therefore were included in the FAS population. The number and percentage of subjects who completed treatment or discontinued prematurely were summarized by treatment groups as shown in Table 1. In addition, the number and percentage of subjects who withdrew were summarized by reason for discontinuation by treatment group. The majority (>85%) of subjects completed the study across all dose groups for the FAS, randomized, and safety populations. Seven subjects who discontinued the study early all were from E5501 dose groups: two subjects in each of 2.5, 10 and 20 mg dose groups and one subject in the 5 mg dose group.

## O=C(Nc1nc(-c2cc(Cl)cs2)c(N2CCN(C3CCCCC3)CC2)s1)c1cnc(N2CCC(C(=O)O)CC2)c(Cl)c1 [E5501, 1-(3-chloro-5-{[4-(4-chlorothiophen-2-yl)-5-(4-cyclohexylpiperazin-1-yl)thiazol-2-yl]carbamoyl}pyridine-2-yl)piperidine-4-carboxylic acid]
TEAE, Total E5501
  Diarrhoea: 5 (8.5) n (%)
  Ecchymosis: 3 (5.1) n (%)
  Epistaxis: 9 (15.3) n (%)
  Fatigue: 12 (20.3) n (%)
  Headache: 12 (20.3) n (%)
  Migraine: 2 (3.4) n (%)
  Nausea: 3 (5.1) n (%)
  Pain in extremity: 3 (5.1) n (%)
  Petechiae: 2 (3.4) n (%)
  Platelet count increased: 4 (6.8) n (%)
  Upper respiratory tract infection: 3 (5.1) n (%)
  Vomiting: 4 (6.8) n (%)
Total E5501
  Death: 0 n (%)
  Serious TEAEs (Any Serious TEAE): 3 (5.1) n (%)
  TEAE Leading to Study Treatment Dose Interruption: 3 (5.1) n (%)
  TEAE Leading to Study Treatment Withdrawal: 4 (6.8) n (%)
  TEAEs: 50 (84.7) n (%)
  Treatment-Related Serious TEAEs: 1 (1.7) n (%)
  Treatment-Related TEAEs: 35 (59.3) n (%)
  Discontinued study, primary reason Adverse Event or SAE: 2 (3.4) n (%)
  Discontinued study, primary reason Platelet Count Increase to ≧500 K/mm^3: 2 (3.4) n (%)
  Blood and lymphatic system disorders: 1 (1.7) n (%)
  Cardiac disorders: 1 (1.7) n (%)
  Eye disorders: 1 (1.7) n (%)
  Gastritis haemorrhagic: 1 (1.7) n (%)
  Gastrointestinal disorders: 1 (1.7) n (%)
  Infections and infestations: 1 (1.7) n (%)
  Myocardial infarction: 1 (1.7) n (%)
  Nervous system disorders: 1 (1.7) n (%)
  Pneumonia: 1 (1.7) n (%)
  Retinal artery occlusion: 1 (1.7) n (%)
  Thrombocytopenia: 1 (1.7) n (%)
  Transient ischaemic attack: 1 (1.7) n (%)
All E5501
  TEAE leading to study treatment interruption: 3 cases
  TEAE leading to withdrawal of study treatment: 4 cases
  subjects with a TEAE leading to study drug withdrawal: 6.8%
All E5501-treated subjects
  Epistaxis: 15.3%
  Fatigue: 20.3%
  Headache: 20.3%
  subjects who experienced a treatment emergent adverse event (TEAE): 84.7%
  subjects with TEAE possibly or probably related to E5501: 59.3%
One for each of the 5 and 10 mg dose groups
  subjects who withdrew due to an AE: two
overall
  number of serious TEAEs: 6
2.5 mg
  Discontinued study, primary reason Adverse Event or SAE: 0 n (%)
  Discontinued study, primary reason Platelet Count Increase to ≧500 K/mm^3: 0 n (%)
  Blood and lymphatic system disorders: 1 (6.7) n (%)
  Cardiac disorders: 0 n (%)
  Eye disorders: 0 n (%)
  Gastritis haemorrhagic: 1 (6.7) n (%)
  Gastrointestinal disorders: 1 (6.7) n (%)
  Infections and infestations: 0 n (%)
  Myocardial infarction: 0 n (%)
  Nervous system disorders: 0 n (%)
  Pneumonia: 0 n (%)
  Retinal artery occlusion: 0 n (%)
  Thrombocytopenia: 1 (6.7) n (%)
  Transient ischaemic attack: 0 n (%)
5 mg
  Discontinued study, primary reason Adverse Event or SAE: 1 (6.7) n (%)
  Discontinued study, primary reason Platelet Count Increase to ≧500 K/mm^3: 0 n (%)
  Blood and lymphatic system disorders: 0 n (%)
  Cardiac disorders: 0 n (%)
  Eye disorders: 0 n (%)
  Gastritis haemorrhagic: 0 n (%)
  Gastrointestinal disorders: 0 n (%)
  Infections and infestations: 0 n (%)
  Myocardial infarction: 0 n (%)
  Nervous system disorders: 0 n (%)
  Pneumonia: 0 n (%)
  Retinal artery occlusion: 0 n (%)
  Thrombocytopenia: 0 n (%)
  Transient ischaemic attack: 0 n (%)
10 mg
  Discontinued study, primary reason Adverse Event or SAE: 1 (7.1) n (%)
  Discontinued study, primary reason Platelet Count Increase to ≧500 K/mm^3: 0 n (%)
  Blood and lymphatic system disorders: 0 n (%)
  Cardiac disorders: 1 (7.1) n (%)
  Eye disorders: 1 (7.1) n (%)
  Gastritis haemorrhagic: 0 n (%)
  Gastrointestinal disorders: 0 n (%)
  Infections and infestations: 1 (7.1) n (%)
  Myocardial infarction: 1 (7.1) n (%)
  Nervous system disorders: 1 (7.1) n (%)
  Pneumonia: 1 (7.1) n (%)
  Retinal artery occlusion: 1 (7.1) n (%)
  Thrombocytopenia: 0 n (%)
  Transient ischaemic attack: 1 (7.1) n (%)
20 mg
  Discontinued study, primary reason Adverse Event or SAE: 0 n (%)
  Discontinued study, primary reason Platelet Count Increase to ≧500 K/mm^3: 2 (13.3) n (%)
  Blood and lymphatic system disorders: 0 n (%)
  Cardiac disorders: 0 n (%)
  Eye disorders: 0 n (%)
  Gastritis haemorrhagic: 0 n (%)
  Gastrointestinal disorders: 0 n (%)
  Infections and infestations: 0 n (%)
  Myocardial infarction: 0 n (%)
  Nervous system disorders: 0 n (%)
  Pneumonia: 0 n (%)
  Retinal artery occlusion: 0 n (%)
  Thrombocytopenia: 0 n (%)
  Transient ischaemic attack: 0 n (%)
